Values of other authors as cited in patent US20150133416A1, “Pharmaceutical Composition Comprising Abiraterone Acetate” (Jagotec AG, priority 2012, published 2015).
Where two headings read alike, the source gives them in different places.

Key:
[1] = not given; remark: listed apart in the source
[2] = 20 mg delayed release capsules administered with apple sauce

AUC elevation compared with the fasted state (after a high fat meal) [fold]	Cmax elevation compared with the fasted state (after a high fat meal) [fold]	AUC elevation compared with the fasted state (after a low fat meal) [fold]	Cmax elevation compared with the fasted state (after a low fat meal) [fold]	aqueous solubility [1]	log P [1]	reduction in Cmax [2] [%]	Compound
10	17	5	7	poor	very high	–	C[C@]12CC[C@H](O)CC1=CC[C@@H]1[C@@H]2CC[C@]2(C)C(c3cccnc3)=CC[C@@H]12 [abiraterone]
–	–	–	–	–	–	25	COc1ccc2[nH]c([S+]([O-])Cc3ncc(C)c(OC)c3C)nc2c1 (stereo not shown) [omeprazole]
